Results: ChEMBL document CHEMBL3044809, “Design, synthesis, and fungicidal activities of new strobilurin derivatives” (2007)
Converted amounts (≈) assume the structure as drawn.

Legend:
Type in all cases: functional
Fusarium graminearum = assay: Antifungal activity against Fusarium graminearum assessed as inhibition rate at 50 ug/mL
Dothiorella gregaria = assay: Antifungal activity against Dothiorella gregaria assessed as inhibition rate at 50 ug/mL
Rhizoctonia solani = assay: Antifungal activity against Rhizoctonia solani assessed as inhibition rate at 50 ug/mL
Fusarium oxysporum = assay: Antifungal activity against Fusarium oxysporum assessed as inhibition rate at 50 ug/mL
Botrytis = assay: Antifungal activity against Botrytis cinereapers assessed as inhibition rate at 50 ug/mL
Colletotrichum gossypii = assay: Antifungal activity against Colletotrichum gossypii assessed as inhibition rate at 50 ug/mL
Podosphaera fuliginea [1] = assay: Antifungal activity against Podosphaera fuliginea inoculated in inoculated in cucumber plant assessed as preventive fungicidal activity at 100 ug/mL measured after 7 days
[2] = system: Pseudoperonospora cubensis; assay: Antifungal activity against Pseudoperonospora cubensis inoculated in inoculated in cucumber plant assessed as preventive fungicidal activity at 100 ug/mL measured after 7 days
Podosphaera fuliginea [3] = assay: Antifungal activity against Podosphaera fuliginea inoculated in inoculated in cucumber plant assessed as preventive fungicidal activity at 50 ug/mL measured after 7 days
[4] = system: Pseudoperonospora cubensis; assay: Antifungal activity against Pseudoperonospora cubensis inoculated in inoculated in cucumber plant assessed as preventive fungicidal activity at 50 ug/mL measured after 7 days
[5] = system: Pseudoperonospora cubensis; assay: Antifungal activity against Pseudoperonospora cubensis inoculated in inoculated in cucumber plant assessed as preventive fungicidal activity at 25 ug/mL measured after 7 days
Podosphaera fuliginea [6] = assay: Antifungal activity against Podosphaera fuliginea inoculated in inoculated in cucumber plant assessed as preventive fungicidal activity measured after 7 days; details: 168 h
Podosphaera fuliginea [7] = assay: Antifungal activity against Podosphaera fuliginea inoculated in inoculated in cucumber plant assessed as preventive fungicidal activity at 25 ug/mL measured after 7 days
[8] = system: Pseudoperonospora cubensis; assay: Antifungal activity against Pseudoperonospora cubensis inoculated in inoculated in cucumber plant assessed as preventive fungicidal activity measured after 7 days; details: 168 h

SMILES | inhibition at 50 µg/mL (Fusarium graminearum) | inhibition at 50 µg/mL (Dothiorella gregaria) | inhibition at 50 µg/mL (Rhizoctonia solani) | inhibition at 50 µg/mL (Fusarium oxysporum) | inhibition at 50 µg/mL (Botrytis) | inhibition at 50 µg/mL (Colletotrichum gossypii) | Activity (Podosphaera fuliginea [1]) | Activity [2] | Activity (Podosphaera fuliginea [3]) | Activity [4] | Activity [5] | EC90 (Podosphaera fuliginea [6]) | Activity (Podosphaera fuliginea [7]) | EC90 [8]
CO/C=C(/C(=O)OC)c1ccccc1CSc1nc2ccccc2[nH]1 | 53% | 87% | 78% | 45% | 47% | 52% |  |  |  |  |  |  |  | 
CO/N=C(/C(=O)OC)c1ccccc1CSc1cc(=O)c2ccccc2s1 | 61% | 19% | 73% | 44% | 23% | 48% |  |  |  |  |  |  |  | 
CO/C=C(/C(=O)OC)c1ccccc1CSc1cc(=O)c2ccccc2s1 | 53% | 14% | 64% | 48% | 18% | 52% |  |  |  |  |  |  |  | 
CO/C=C(/C(=O)OC)c1ccccc1CSc1nc2ccccc2o1 | 81% | 46% | 78% | 69% | 47% | 83% |  |  |  |  |  |  |  | 
CO/C=C(/C(=O)OC)c1ccccc1CSc1nn2c(C)nnc2s1 | 53% | 82% | 83% | 59% | 41% | 50% |  |  |  |  |  |  |  | 
CO/C=C(/C(=O)OC)c1ccccc1CSc1nc(C)cc(C)n1 | 74% | 91% | 83% | 79% | 52% | 52% | 70% | 0% | 40% |  |  |  |  | 
CO/N=C(/C(=O)OC)c1ccccc1CSc1nc2ccccc2s1 | 81% | 84% | 82% | 74% | 52% | 75% | 100% | 84% | 100% | 66% | 39% | 9.6 µg/mL (≈ 25.8 µM) | 97% | 150 µg/mL (≈ 404 µM)
CO/N=C(/C(=O)OC)c1ccccc1COc1ccccc1C [KRESOXIM-METHYL] | 53% | 82% | 70% | 61% | 50% | 50% | 100% | 80% | 100% | 56% | 27% | 7.3 µg/mL (≈ 23.3 µM) | 98% | 155 µg/mL (≈ 494 µM)
CO/N=C(/C(=O)OC)c1ccccc1CSc1nc(C)cc(C)n1 | 61% | 82% | 73% | 76% | 27% | 59% |  |  |  |  |  |  |  | 
CO/N=C(/C(=O)OC)c1ccccc1CSc1nnc(CSc2nc3nc(C)cc(C)n3n2)o1 | 41% | 70% | 88% | 63% | 77% | 36% |  |  |  |  |  |  |  | 
CC(C)(C)C(=O)C(Oc1ccc(Cl)cc1)n1cncn1 (stereo unspecified) [TRIADIMEFON] | 72% | 61% | 90% | 86% | 84% | 95% |  |  |  |  |  |  |  | 
CO/N=C(/C(=O)OC)c1ccccc1CSc1nc2ccccc2[nH]1 | 69% | 87% | 90% | 72% | 77% | 82% | 0% | 0% |  |  |  |  |  | 
CO/C=C(/C(=O)OC)c1ccccc1CSc1nc2nc(C)cc(C)n2n1 | 47% | 78% | 66% | 61% | 7% | 39% |  |  |  |  |  |  |  | 
CO/C=C(/C(=O)OC)c1ccccc1CSc1nnc(CSc2nc3nc(C)cc(C)n3n2)n1N | 43% | 78% | 73% | 44% | 14% | 35% |  |  |  |  |  |  |  | 
CO/C=C(/C(=O)OC)c1ccccc1CSc1nnc(CSc2nc3nc(C)cc(C)n3n2)n1-c1ccccc1 | 36% | 11% | 37% | 40% | 7% | 17% |  |  |  |  |  |  |  | 
CO/C=C(/C(=O)OC)c1ccccc1CSc1nnc(CSc2nc3nc(C)cc(C)n3n2)s1 | 44% | 69% | 58% | 61% | 14% | 39% |  |  |  |  |  |  |  | 
CO/N=C(/C(=O)OC)c1ccccc1CSc1nc2nc(C)cc(C)n2n1 | 50% | 78% | 69% | 50% | 14% | 35% |  |  |  |  |  |  |  | 
CO/N=C(/C(=O)OC)c1ccccc1CSc1nnc(CSc2nc3nc(C)cc(C)n3n2)s1 | 45% | 58% | 78% | 54% | 64% | 32% |  |  |  |  |  |  |  | 
CO/C=C(/C(=O)OC)c1ccccc1CSc1nnc(N)s1 | 40% | 55% | 61% | 65% | 11% | 39% |  |  |  |  |  |  |  | 
CO/C=C(/C(=O)OC)c1ccccc1CSc1nc2ccccc2s1 | 74% | 94% | 87% | 69% | 47% | 86% | 100% | 100% | 100% | 94% | 62% | 6.17 µg/mL (≈ 16.6 µM) | 100% | 46.3 µg/mL (≈ 125 µM)
CO/C=C(/C(=O)OC)c1ccccc1CSc1nnc(CSc2nc3nc(C)cc(C)n3n2)o1 | 36% | 73% | 73% | 36% | 36% | 39% |  |  |  |  |  |  |  | 
CO/C=C(/C(=O)OC)c1ccccc1CSc1nnc(-c2ccccc2)n1N | 69% | 76% | 84% | 76% | 41% | 64% |  |  |  |  |  |  |  | 
